Results: the Kinase Knowledgebase extract (Sharma et al. 2016)

The compounds below were run against PIK3CD (Human) (UniProt O00329) (assay: Assessment of PI3KCD Kinase Activity).
PIK3CD (Human), sequence (O00329 whole entry, looked up): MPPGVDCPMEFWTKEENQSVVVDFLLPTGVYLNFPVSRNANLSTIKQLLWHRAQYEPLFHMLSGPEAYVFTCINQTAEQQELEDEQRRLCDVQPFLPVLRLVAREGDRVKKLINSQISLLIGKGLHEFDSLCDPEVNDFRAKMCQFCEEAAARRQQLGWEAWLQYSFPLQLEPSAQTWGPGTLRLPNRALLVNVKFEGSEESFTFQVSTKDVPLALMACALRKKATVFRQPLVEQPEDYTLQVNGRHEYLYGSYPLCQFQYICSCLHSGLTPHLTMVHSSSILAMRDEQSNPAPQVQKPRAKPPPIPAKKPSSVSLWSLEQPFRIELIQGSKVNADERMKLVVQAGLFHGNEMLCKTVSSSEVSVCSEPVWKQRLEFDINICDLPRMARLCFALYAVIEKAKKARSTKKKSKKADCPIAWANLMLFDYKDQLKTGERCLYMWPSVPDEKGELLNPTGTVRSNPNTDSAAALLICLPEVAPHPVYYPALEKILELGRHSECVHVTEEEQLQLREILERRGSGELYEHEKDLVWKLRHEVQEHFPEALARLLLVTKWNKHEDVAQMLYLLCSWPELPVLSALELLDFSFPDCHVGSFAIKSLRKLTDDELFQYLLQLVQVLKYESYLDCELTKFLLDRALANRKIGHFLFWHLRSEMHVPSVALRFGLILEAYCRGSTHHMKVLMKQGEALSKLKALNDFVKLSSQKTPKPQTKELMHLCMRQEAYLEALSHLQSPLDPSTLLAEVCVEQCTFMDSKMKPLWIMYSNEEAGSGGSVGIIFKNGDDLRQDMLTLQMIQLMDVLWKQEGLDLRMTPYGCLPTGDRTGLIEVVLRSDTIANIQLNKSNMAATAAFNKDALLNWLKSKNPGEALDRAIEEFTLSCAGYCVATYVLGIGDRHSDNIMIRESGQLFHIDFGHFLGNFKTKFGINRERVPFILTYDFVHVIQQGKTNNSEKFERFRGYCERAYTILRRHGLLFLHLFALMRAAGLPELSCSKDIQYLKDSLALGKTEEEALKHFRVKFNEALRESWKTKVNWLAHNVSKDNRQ
`Cc1cccc2cc(Cn3nc(-c4cn[nH]c4)c4c(N)ncnc43)n(-c3ccccc3F)c(=O)c12` was tested, and the IC50 was less than 100 nM. For `CCc1ccccc1-n1c(Cn2nc(C#C[C@@H](C)O)c3c(N)ncnc32)nc2scc(C)c2c1=O`, the IC50 was less than 100 nM. In the case of `Cc1cccc2cc(Cn3nc(C#C[C@@H](C)O)c4c(N)ncnc43)n(C3CCCCC3)c(=O)c12`, the IC50 is reported as less than 100 nM. With `Cc1ccccc1-n1c(Cn2nc(Br)c3c(N)ncnc32)nc2scc(C(F)(F)F)c2c1=O` the IC50 was less than 100 nM. In the case of `Cc1cccc2cc(Cn3nc(-c4ccc(F)c(O)c4)c4c(N)ncnc43)n(-c3ccccc3F)c(=O)c12`, the IC50 is reported as less than 100 nM. `Cc1cccc2cc(Cn3nc(-c4cc(O)cc(F)c4)c4c(N)ncnc43)n(-c3ccccc3OCCN3CCOCC3)c(=O)c12` gave an IC50 of less than 100 nM. `Cc1csc2nc(Cn3nc(-c4ccc(Cl)c(O)c4)c4c(N)ncnc43)n(-c3ccccc3F)c(=O)c12` showed an IC50 of less than 100 nM. `Cc1cccc2cc(Cn3nc(-c4cccc(O)c4)c4c(N)ncnc43)n(-c3ccccc3F)c(=O)c12` gave an IC50 of less than 100 nM. `Cc1csc2nc(Cn3nc(Br)c4c(N)ncnc43)n(-c3ccccc3F)c(=O)c12` was tested, and the IC50 was less than 100 nM. Work on `Cc1cccc2cc(Cn3nc(-c4cc(O)cc(F)c4)c4c(N)ncnc43)n(C(C)C)c(=O)c12` yielded an IC50 of less than 100 nM. For `Cc1cccc2cc(Cn3nc(-c4cnn(CCO)c4)c4c(N)ncnc43)n(-c3ccccc3F)c(=O)c12`, the IC50 was less than 100 nM. In the case of `COc1ccccc1-n1c(Cn2nc(Br)c3c(N)ncnc32)nc2scc(C)c2c1=O`, the IC50 is reported as less than 100 nM. In the case of `Cc1ccccc1-n1c(Cn2nc(Cl)c3c(N)ncnc32)cc2cccc(C)c2c1=O`, the IC50 is reported as less than 100 nM. For `Cc1cccc2cc(Cn3nc(-c4cn[nH]c4)c4c(N)ncnc43)n(-c3cccc(F)c3)c(=O)c12`, the IC50 was less than 100 nM. With `Cc1cccc2cc(Cn3nc(I)c4c(N)ncnc43)n(-c3ccccc3F)c(=O)c12` the IC50 was less than 100 nM. `Cc1ccnc2nc(Cn3nc(I)c4c(N)ncnc43)n(-c3ccccc3F)c(=O)c12` was tested, and the IC50 was less than 100 nM. With `Cc1cccc2cc(Cn3nc(-c4cccc(O)c4)c4c(N)ncnc43)n(C3CCC3)c(=O)c12` the IC50 was less than 100 nM. For `CC(C)n1c(Cn2nc(-c3cccc(O)c3)c3c(N)ncnc32)cc2ccccc2c1=O`, the IC50 was less than 100 nM. `Cc1cccc2cc(Cn3nc(I)c4c(N)ncnc43)n(C(C)C)c(=O)c12` was tested, and the IC50 was less than 100 nM. `Cc1cccc2cc(Cn3nc(-c4cccc(O)c4)c4c(N)ncnc43)n(-c3ccccc3OCCN3CCOCC3)c(=O)c12` gave an IC50 of less than 100 nM. Work on `Cc1csc2nc(Cn3nc(C#C[C@@H](C)O)c4c(N)ncnc43)n(-c3ccccc3C(F)(F)F)c(=O)c12` yielded an IC50 of less than 100 nM. `CC(C)n1c(Cn2nc(-c3cc(O)cc(F)c3)c3c(N)ncnc32)cc2cccc(F)c2c1=O` showed an IC50 of less than 100 nM. `Cc1csc2nc(Cn3nc(C#C[C@@H](C)O)c4c(N)ncnc43)n(-c3ccccc3C(C)C)c(=O)c12` gave an IC50 of less than 100 nM. `Cc1ccccc1-n1c(Cn2nc(C#CCO)c3c(N)ncnc32)nc2scc(C)c2c1=O` was tested, and the IC50 was less than 100 nM. In the case of `Cc1ccccc1-n1c(Cn2nc(I)c3c(N)nccc32)cc2cccc(C)c2c1=O`, the IC50 is reported as less than 100 nM. In the case of `Cc1ccccc1-n1c(Cn2nc(Br)c3c(N)ncnc32)nc2sc(C)c(C)c2c1=O`, the IC50 is reported as less than 100 nM. `Cc1cccc2cc(Cn3nc(I)c4c(N)ncnc43)n(-c3ccccc3OCCN3CCOCC3)c(=O)c12` showed an IC50 of less than 100 nM. `Cc1cccc2cc(Cn3nc(-c4cc(O)cc(F)c4)c4c(N)ncnc43)n(C3CCCCC3)c(=O)c12` was tested, and the IC50 was less than 100 nM. With `Cc1ccccc1-n1c(Cn2nc(-c3cc(O)cc(F)c3)c3c(N)ncnc32)cc2ncccc2c1=O` the IC50 was less than 100 nM. `Cc1csc2nc(Cn3nc(-c4cc(O)cc(F)c4)c4c(N)ncnc43)n(-c3ccccc3Cl)c(=O)c12` was tested, and the IC50 was less than 100 nM. In the case of `Cc1ccccc1-n1c(Cn2nc(Cl)c3c(N)ncnc32)nc2scc(C)c2c1=O`, the IC50 is reported as less than 100 nM. In the case of `Cc1ccncc1-n1c(Cn2nc(I)c3c(N)ncnc32)cc2cccc(C)c2c1=O`, the IC50 is reported as less than 100 nM. `Cc1csc2nc(Cn3nc(-c4cccc(O)c4)c4c(N)ncnc43)n(-c3ccccc3Cl)c(=O)c12` gave an IC50 of less than 100 nM. For `Cc1ccccc1-n1c(Cn2nc(C#N)c3c(N)ncnc32)cc2cccc(C)c2c1=O`, the IC50 was less than 100 nM. `COc1ccccc1-n1c(Cn2nc(-c3cccc(O)c3)c3c(N)ncnc32)nc2scc(C)c2c1=O` gave an IC50 of less than 100 nM. For `Cc1ccccc1-n1c(Cn2nc(-c3cccc(O)c3)c3c(N)nccc32)cc2cccc(C)c2c1=O`, the IC50 was less than 100 nM. `Cc1cccc2cc(Cn3nc(C#C[C@@H](C)O)c4c(N)ncnc43)n(C3CCCC3)c(=O)c12` showed an IC50 of less than 100 nM. With `Cc1cccc2cc(Cn3nc(-c4cc(O)cc(F)c4)c4c(N)ncnc43)n(C)c(=O)c12` the IC50 was less than 100 nM. With `Cc1cccc2cc(Cn3nc(I)c4c(N)ncnc43)n(-c3ccccc3Cl)c(=O)c12` the IC50 was less than 100 nM. Compound `Cc1ccccc1-n1c(Cn2nc(-c3ccc(O)c(F)c3)c3c(N)ncnc32)cc2nccc(C)c2c1=O` has an IC50 of less than 100 nM. For `Cc1cccc2cc(Cn3nc(I)c4c(N)ncnc43)n(C3CCC3)c(=O)c12`, the IC50 was less than 100 nM. `Cc1ccccc1-n1c(Cn2nc(-c3cccc(O)c3)c3c(N)ncnc32)nc2cnn(C)c2c1=O` showed an IC50 of less than 100 nM. `Cc1ccccc1-n1c(Cn2nc(-c3cc(O)cc(F)c3)c3c(N)ncnc32)nc2sc(C)c(C)c2c1=O` gave an IC50 of less than 100 nM. `Cc1cccc2cc(Cn3nc(C#CCO)c4c(N)ncnc43)n(-c3ccccc3F)c(=O)c12` gave an IC50 of less than 100 nM. In the case of `Cc1ccccc1-n1c(Cn2nc(C#C[C@@H](C)O)c3c(N)ncnc32)nc2scc(C)c2c1=O`, the IC50 is reported as less than 100 nM. In the case of `Cc1csc2nc(Cn3nc(-c4cccc(O)c4)c4c(N)ncnc43)n(-c3ccccc3F)c(=O)c12`, the IC50 is reported as less than 100 nM. `COc1ccccc1-n1c(Cn2nc(C#C[C@@H](C)O)c3c(N)ncnc32)nc2scc(C)c2c1=O` was tested, and the IC50 was less than 100 nM. For `Cc1ccccc1-n1c(Cn2nc(-c3cc(O)cc(F)c3)c3c(N)ncnc32)cc2cccc(F)c2c1=O`, the IC50 was less than 100 nM. `COc1ccccc1-n1c(Cn2nc(I)c3c(N)ncnc32)cc2cccc(C)c2c1=O` gave an IC50 of less than 100 nM. In the case of `Cc1ccccc1-n1c(Cn2nc(-c3cccc(O)c3)c3c(N)ncnc32)cc2ccccc2c1=O`, the IC50 is reported as less than 100 nM. `Cc1ccccc1-n1c(Cn2nc(Br)c3c(N)ncnc32)nc2scc(C)c2c1=O` was tested, and the IC50 was less than 100 nM. Compound `Cc1cccc2cc(Cn3nc(C#C[C@@H](C)O)c4c(N)ncnc43)n(-c3ccccc3O)c(=O)c12` has an IC50 of less than 100 nM. Compound `Cc1ccccc1-n1c(Cn2nc(C#CCO)c3c(N)ncnc32)cc2cccc(C)c2c1=O` has an IC50 of less than 100 nM. For `Cc1ccccc1-n1c(Cn2nc(I)c3c(N)ncnc32)nc2scc(C)c2c1=O`, the IC50 was less than 100 nM. For `Cc1cccc2cc(Cn3nc(-c4cccc(O)c4)c4c(N)ncnc43)n(C3CCCC3)c(=O)c12`, the IC50 was less than 100 nM. Compound `Cc1cccc2cc(Cn3nc(C#N)c4c(N)ncnc43)n(-c3ccccc3F)c(=O)c12` has an IC50 of less than 100 nM. In the case of `Cc1cccc2cc(Cn3nc(-c4ccc(Cl)c(O)c4)c4c(N)ncnc43)n(C(C)C)c(=O)c12`, the IC50 is reported as less than 100 nM. Compound `Cc1cccnc1-n1c(Cn2nc(-c3cc(O)cc(F)c3)c3c(N)ncnc32)cc2ccccc2c1=O` has an IC50 of less than 100 nM. `CC(C)n1c(Cn2nc(-c3cccc(O)c3)c3c(N)ncnc32)cc2cccc(Cl)c2c1=O` showed an IC50 of less than 100 nM. Compound `Cc1cccc2cc(Cn3nc(-c4cccc(O)c4)c4c(N)ncnc43)n(C)c(=O)c12` has an IC50 of less than 100 nM. `Cc1cccnc1-n1c(Cn2nc(-c3cccc(O)c3)c3c(N)ncnc32)cc2cccc(C)c2c1=O` showed an IC50 of less than 100 nM. With `Cc1cccc2cc(Cn3nc(-c4cc(O)cc(F)c4)c4c(N)ncnc43)n(C3CCC3)c(=O)c12` the IC50 was less than 100 nM. In the case of `CCn1c(Cn2nc(-c3cccc(O)c3)c3c(N)ncnc32)cc2cccc(C)c2c1=O`, the IC50 is reported as less than 100 nM. With `Nc1ncnc2c1c(-c1cc(O)cc(F)c1)nn2Cc1cc2cccc(F)c2c(=O)n1-c1ccccc1F` the IC50 was less than 100 nM. `Cc1ccccc1-n1c(Cn2nc(Br)c3c(N)ncnc32)nc2nccc(C)c2c1=O` was tested, and the IC50 was less than 100 nM.
